From patent publication US6866864B2, “Compositions and methods of use in the treatment of angiogenesis and vascular-related disorders” (priority 2000, dated 2005)

Columns and labels:
[1] = system: human smooth muscle cell migration; assay: Human smooth muscle cell migration toward plasma from MI patients (modified Boyden chamber); format: cell-based; details: for synergy with antioxidant on the inhibition of human smooth muscle cell migration: garlic ingredients 1 μM each plus ascorbic acid 3 μM, FIG. 5; for effect on human smooth muscle cell migration toward plasma from MI patients: antioxidants alone, 3 μM each, FIG. 3
Procedure: Graph showing the modified Boyden chamber used to examine the effect of garlic ingredients, antioxidants, and combinations on human smooth muscle cell migration toward plasma obtained from acute myocardial infarction patients (MI) during balloon angioplasty and stent coronary intervention.
The procedure is as follow: 20 μl plasma was placed in the bottom chamber (A), smooth muscle suspension 1×10^6 cells in 5 μl with or without the various garlic active ingredients, antioxidants or combinations were placed in the top chamber (B). The chamber B was fitted over chamber A, covered and placed in a CO2 (5%)/O2 (95%) incubator for 22 hours at 37° C. The filter from chamber B was taken out of the chamber and the cells on the top were scraped off using a cell scraper. The filter was placed in formaldehyde, Triton X100, washing buffer solution, stained with Rhodamine phloyden, and then a washing solution as shown in station C (front view) and D (side view). The filter was then dried and put in a fluorescence plate reader to read the degree of fluorescence.

[2] = system: tumor growth in the CAM model; assay: Chick chorioallantoic membrane tumor assay model; format: in vivo; details: different types of tumor; by inhibiting tumor-induced angiogenesis
Procedure: In addition to the angiogenesis assays described above where the effect of the garlic sulfur containing ingredient Alliin±antioxidants were evaluated, the anti-tumor efficacy for Alliin+antioxidants were evaluated as well. Ten million tumor cells were placed on the surface of each CAM and were cultured for one week. The resulting tumors were excised and cut into 50 mg fragments. Cheresh et al., Cell 58: 945-953 (1989), Brooks et al., J. Cell Biol., 122:1351 (1993) and as described herein. These fragments were placed on additional CAMs and treated topically the following day with 0.11 mg in 25 μl of Alliin with and without anti-oxidant or saline. Forty eight hours later, CAMs were excised from the egg and the number of blood vessels entering the tumors were counted (as vessel branch points).
Data presented as mean blood vessel number per treatment group (+/− standard error of measurement). Each treatment group incorporated at least ten tumors per experiment. Representative tumors were photographed at 10× magnification. Tumors were then excised from the egg and tumor weights were determined for each tumor. Data presented as mean tumor weight per treatment group (+/− standard error of measurement). Statistical analyses were performed using Student's t-test.

[3] = system: bFGF-induced angiogenesis on the CAM; assay: FGF2 (bFGF)-induced angiogenesis in the chick chorioallantoic membrane (CAM) model; format: in vivo
Procedure: In Vivo Angiogenesis: Ten-day old chick embryos were purchased from Spafas, Inc. (Preston, Conn.) and were incubated at 37° with 55% humidity generally referred to as chick chorioallantoic membrane (CAM) model. A small hole was punctured in the shell concealing the air sac with a hypodermic needle. A second hole was punctured in the shell on the broadside of the egg directly over an avascular portion of the embryonic membrane, as observed during candling. A false air sac was created beneath the second hole by the application of negative pressure to the first hole, which caused the CAM to separate form the shell. A window, approximately 1.0 cm2, was cut the in the shell over the dropped CAM with the use of a small crafts grinding wheel (Dermal, Division of Emerson Electric Company (Racine, Wis.) which allowed direct access to the underlying CAM.
Filter disks of #1 filter paper (Whatman International, United Kingdom) were soaked in 3 mg/ml cortisone acetate (Sigma, St. Louis, Mo.) in a solution of 95% ethanol and water and subsequently air dried under sterile conditions. […] Blood vessel branch points in the 5 mm filter disk area were counted at 30× magnification in a blinded fashion as a size-independent quantitative indicator of vascular sprouting in response to growth factors. As angiogenesis is characterized by the sprouting of new vessels in response to growth factors, counting blood vessel branch points is a useful quantitative means of obtaining an angiogenic index. […] Data was evaluated in terms of average number of blood vessel branch points per treatment group±standard deviation of measurement. […]
Microscopic Analysis of CAM Sections: CAM tissue directly beneath FGF2-saturated filter disk was resected from embryos treated 48 hours prior with compounds or controls. […] Digital images of CAM sections adjacent to filters were collected using a 3-CCD color video camera system (Toshiba America, New York, N.Y.) and analyzed with the Image-Pro Plus software (Media Cybernetics, Silver Spring, Md.). […]

HUVEC = assay: FGF2-induced endothelial cell tube formation on Matrigel; format: cell-based, human
Procedure: For the different in vitro assays human smooth muscle cells and human umbilical vein endothelial (HUVEC) cells were obtained from (Clonetics, Walkersville, Md.). Endothelial cells (EC) were grown to 80-90% confluence in Endothelial Growth Medium (EGM) containing hEGF 10 ng/ml, hydrocortisone […], gentamicin […], amphotercin-B 50 ug/ml, Blood Brain Extract 0.012 mg/ml and 2% Fetal Bovine Serum equilibrated with 95% air/5% CO2 at 37° C. HUVEC cells will be serially passed in Endothelial Growth in cell culture flasks coated with gelatin 0.2%, (Sigma, St. Louis, Mo.). Confluent cultures of endothelial cells between the 3rd and 6th passages were washes with HBSS and harvested using 0.025% trypsin/0.01% EDTA and counted by hemacytometer. […]
Microscopic Analysis of Endothetial Cell Tube Formation: […] Digital images of microtiter well sections were collected using a 3-CCD color video camera system ([…], New York, N.Y.) and analyzed with the Image-Pro Plus software (Media Cybernetics, Silver Spring, Md.). The area and major axis length of stained cells having a tubular morphology on the Matrigel surface counted from 5 images/well. Area data is expressed in units of 10^4 square microns and length data is expressed as length/area in units of mm/mm^2. […]

C=CCSSCC=C [allyl disulfide]
synergy with antioxidant on the inhibition of human smooth muscle cell migration [1]: synergy

O=C1O[C@H]([C@@H](O)CO)C(O)=C1O [ascorbic acid]
effect on human smooth muscle cell migration toward plasma from MI patients [1]: lack of effect

Alliin
tumor growth in the CAM model [2]: inhibited | synergy with antioxidant on the inhibition of human smooth muscle cell migration [1]: synergy | inhibition of smooth muscle cell migration toward plasma from MI subjects ([1]; qualitative, micrographs treated vs untreated, FIG. 4): Inhibition of smooth muscle cell migration | efficacy on FGF2-induced angiogenesis in the CAM model ([3]; Alliin ± antioxidants, FIG. 11B, n=6): Dose-dependent efficacy | blockade of bFGF-induced angiogenesis on the CAM ([3]; applied to filter disk or injected intravenously 24 h after bFGF): at least 92+/−10% | inhibition of growth of new blood vessels induced by bFGF (vessel branch points) ([3]; applied to the growth factor saturated filter 24 h after bFGF, CAMs excised after three days): 92 +/−10% | efficacy on FGF2-induced EC tube formation (HUVEC; Alliin ± antioxidants, FIG. 10, n=6): Concentration-dependent efficacy | inhibition of cytokine stimulated tube formation (HUVEC; HUVEC, FGF2 50 ng/ml, alliin 0-0.011 mg): 90-100%

ethylene diphenyl urea [EDU]
effect on human smooth muscle cell migration toward plasma from MI patients [1]: lack of effect
